{
  "source": "patent US20180049433A1",
  "about": "“SEMIOCHEMICAL COMPOSITIONS FOR THE PREVENTION OF HEMATOPHAGOUS DIPTERA INSECTS FROM LANDING AND BITING ANIMALS” (INSTITUTE DE RECHERCHE EN SEMIOCHIMIE ET ETHOLOGIE APPLIQUEE, priority 2015, published 2018)",
  "key": {"[1]": {"test_system": "Culex pipiens quinquefasciatus", "assay": "Mosquito engorgement test on treated shaved guinea pigs, Culex pipiens quinquefasciatus", "type": "in vivo", "excerpt": "The tests were undertaken using experimental cages, which were composed of a plastic frame having the dimensions 29×29×29 cm. A sleeve of mosquito netting was placed over the cage. The sleeves of the netting were closed with rubber bands thus preventing light from entering the cages.\nIn each cage the mosquitoes had at their disposition a little water placed in a jar.\nThe mosquitoes that were used in this experiment were Culex pipiens quinquefasciatus. In each cage 50 female mosquitoes were introduced.\nThe day before the test 50 […] female mosquitoes were introduced into their experimental cage. The mosquitoes were deprived of a source of sugar at least twelve hours before the test.\nThe mosquitoes were collected by suction on the walls of the experimental cage with a mouth vacuum that was connected to a suction pump. To avoid errors, the mosquitoes were removed and introduced in lots of five. The sex was determined by observation of their antennas, since the male's antennas are more feathery.\nOnce the mouth vacuum was empty in the experimental cage the health of the mosquitoes was verified. To be used in the experiment, the mosquitoes had to be able to fly. Before the test the dead mosquitoes or those mosquitoes that could not fly were replaced with healthy ones.\nPrior to starting the experiment the mosquitoes were tested to determine if the mosquitoes were ready to bite. This was verified by introducing a hand washed with soap and without any smell in the experimental cage. If more than three mosquitoes posed on the hand voluntarily within a delay of 30 seconds, then it was deemed that the mosquitoes were ready to bite. The hand was withdrawn when the three mosquitoes posed on it or when the 30 second time period was up. This test was repeated every minute for a maximum of 5 minutes, until a positive result was obtained. If no positive result was obtained the experiment was postponed.\nA herd of guinea pigs males and females aging from 4 months to 3 years were used in the experiments. The guinea pig was anesthetized by injecting 1 mg/kg (live weight) of Zoletil® 20 in the thigh. A thin layer of Ocryl® gel was placed on the eyes of the guinea pigs.\nThe abdominal zone of the guinea pigs were carefully shaved from the teats to the base of the thorax. The area that was shaved was 8 cm from the base of the thorax to the teats by 6 cm from left to right of the guinea pig. This was done using a transparent template.\nAfter shaking the sprayer containing the insect bite inhibiting semiochemical, each guinea pig was sprayed 3 times (0.5 ml total) in the center of the shaved region. After the first administration, the product was spread with the little finger, in which the hand is covered by a vinyl glove, towards the teats. After the second administration by spraying the product was spread with the gloved little finger towards the thorax. After the third administration by spraying the product was spread over the entire shaved surface. The product was permitted to dry for a period of five minutes.\nAt the bottom of the experimental cage a transparent sheet was placed in which a rectangle of 7 cm by 5 cm was cut in the center. Another cover sheet cut with the same dimensions as the transparent sheet was made and the two rectangles were superimposed on one another and stapled together with 8 staples.\nThe shaved zone of the guinea pig was centered over the rectangular transparent sheet and the guinea pigs were exposed to the mosquitoes for 30 minutes. See, FIGS. 2 and 3.\nAt the end of 30 minutes, the mosquitoes were recovered by mouth vacuum. They were then enclosed in a plastic bag that contained a paper soaked with ethyl acetate. After 3 minutes the mosquitoes were aligned on a strip of scotch tape that was labeled with the number of the experiment, the date, the name of the guinea pig in the experiment and the treatment that was applied.\nEach treatment was tested with a control."}, "[2]": {"test_system": "Culex pipiens quinquefasciatus", "assay": "Mosquito engorgement test on treated cats, Culex pipiens quinquefasciatus", "type": "in vivo", "settings": "cat", "protocol": "Other tests were performed on guinea pigs and cats using combinations of D, which is 3-cyclopentyl propanoic acid, F, which is 3-cyclohexyl propanoic acid, X, which is 3-cyclohexyl 2-methyl propanoic acid and W, which is 3-cyclopentyl 2-methyl propanoic acid.\nThe same experiment was conducted in the same manner as in Example 4 using guinea pigs, chickens and cats. The mosquitoes used in this experiment were Culex sp, Aedes sp and Anopheles.\nThe procedure that was followed was that in Example 4, except that cats (Felis domesticus) were tested instead of guinea pigs. The mosquitoes that were used in this experiement were Culex pipiens quinquefasciatus and Aedes aegypti."}, "insects": {"test_system": "insects", "settings": "cited from earlier work"}, "[3]": {"settings": "guinea pig, solution 0.3%, dose 31 μg/cm^2, 30 min exposure"}, "[4]": {"settings": "guinea pig, solution 0.3%, dose 33 μg/cm^2, 30 min exposure"}, "[5]": {"settings": "solution 3.0%, dose 324 μg/cm^2, 30 min exposure"}, "[6]": {"settings": "guinea pig, solution 3.0%, dose 31 μg/cm^2, 30 min exposure"}, "[7]": {"settings": "guinea pig, dose 31 μg/cm^2 (Table 7)"}, "[8]": {"settings": "guinea pig, solution 0.1%, dose not given, 30 min exposure"}},
  "note": "Values joined by “and” are separate entries in the source; they are usually repeats but may differ in a detail not shown here. Equal values may be shown once. Read-outs that look alike come from different tables or passages of the source.",
  "data": [
    {"molecule": "O=C(O)CCC1CCCC1", "note": "[3-CPP, 3-cyclopentyl propionic acid]", "values": [
      {"measurement": "% bites tested", "setting": "[1]; [3]", "value": "4% and 5% and 1% and 11%"},
      {"measurement": "% efficacy", "setting": "[1]; [3]", "value": "94% and 85% and 91% and 82%"},
      {"measurement": "% bites tested", "setting": "[1]; [4]", "value": 0, "unit": "%"},
      {"measurement": "% efficacy", "setting": "[1]; [4]", "value": 100, "unit": "%"},
      {"measurement": "% bites tested", "setting": "[1]; [5]", "value": 0, "unit": "%"},
      {"measurement": "% efficacy", "setting": "[1]; [5]", "value": 100, "unit": "%"},
      {"measurement": "% efficacy", "setting": "[2]; 3.0%, dose 314 μg/cm^2", "value": 100, "unit": "%"},
      {"measurement": "Number of bites of the solution used", "setting": "[2]; 3.0%, dose 314 μg/cm^2", "value": 0, "unit": "%"},
      {"measurement": "% efficacy", "setting": "[2]; dose 32 μg/cm^2", "value": "94% and 100%"},
      {"measurement": "% efficacy", "setting": "[2]; dose 324 μg/cm^2", "value": 100, "unit": "%"}
    ]},
    {"molecule": "CC(C)=CCC/C(C)=C/CO", "note": "[geraniol, reference compound]", "values": [
      {"measurement": "% bites tested", "setting": "[1]; [3]", "value": 25, "unit": "%"},
      {"measurement": "% efficacy", "setting": "[1]; [3]", "value": 58, "unit": "%"},
      {"measurement": "% bites tested", "setting": "[1]; [6]", "value": 0, "unit": "%"},
      {"measurement": "% efficacy", "setting": "[1]; [6]", "value": 100, "unit": "%"}
    ]},
    {"molecule": "CC(CC1CCCCC1)C(=O)O", "note": "(stereo not shown) [methylated 3-CHP, 3-cyclohexyl 2-methyl propanoic acid]", "values": [
      {"measurement": "% efficacy", "setting": "[1]; [7]", "value": 67, "unit": "%"}
    ]},
    {"molecule": "CC12CCC(CC1)C(C)(C)O2", "note": "[eucalyptol, reference compound]", "values": [
      {"measurement": "% bites tested", "setting": "[1]; [3]", "value": 43, "unit": "%"},
      {"measurement": "% efficacy", "setting": "[1]; [3]", "value": "−14", "unit": "%"}
    ]},
    {"molecule": "CCN(CC)C(=O)c1cccc(C)c1", "note": "[DEET, N,N-diethyl-meta-toluamide]", "values": [
      {"measurement": "protection time", "setting": "insects; encapsulated DEET", "value": "up to 10 hours"},
      {"measurement": "protection time", "setting": "insects; product containing 4.75% of DEET", "value": "one and a half"},
      {"measurement": "protection time", "setting": "insects; product containing 23.8% of DEET", "value": "five"}
    ]},
    {"molecule": "Cc1ncc(CO)c(CO)c1O", "note": "[Vit. B6, reference compound]", "values": [
      {"measurement": "% bites tested", "setting": "[1]; [8]", "value": 87, "unit": "%"},
      {"measurement": "% efficacy", "setting": "[1]; [8]", "value": "−19", "unit": "%"}
    ]},
    {"molecule": "C=C(C)[C@H]1CC=C(C)CC1", "note": "[limonene, reference compound]", "values": [
      {"measurement": "% bites tested", "setting": "[1]; [3]", "value": 58, "unit": "%"},
      {"measurement": "% efficacy", "setting": "[1]; [3]", "value": "−19", "unit": "%"}
    ]},
    {"molecule": "pinene [reference compound]", "values": [
      {"measurement": "% bites tested", "setting": "[1]; [3]", "value": 23, "unit": "%"},
      {"measurement": "% efficacy", "setting": "[1]; [3]", "value": 30, "unit": "%"}
    ]},
    {"molecule": "O=C(O)CC1CCCCC1", "note": "[CHA, cyclohexyl acetic acid]", "values": [
      {"measurement": "% bites tested", "setting": "[1]; [3]", "value": 8, "unit": "%"},
      {"measurement": "% efficacy", "setting": "[1]; [3]", "value": 86, "unit": "%"}
    ]},
    {"molecule": "CC(CC1CCCC1)C(=O)O", "note": "(stereo not shown) [methylated 3-CPP, 3-cyclopentyl 2-methyl propanoic acid]", "values": [
      {"measurement": "% efficacy", "setting": "[1]; [7]", "value": 89, "unit": "%"}
    ]},
    {"molecule": "Cc1ncc(C[n+]2csc(CCO)c2C)c(N)n1", "note": "[Vit. B1, reference compound]", "values": [
      {"measurement": "% bites tested", "setting": "[1]; [8]", "value": 93, "unit": "%"},
      {"measurement": "% efficacy", "setting": "[1]; [8]", "value": 2, "unit": "%"}
    ]},
    {"molecule": "CC1=CC[C@@H](C(C)(C)O)CC1", "note": "[alpha terpineol, reference compound]", "values": [
      {"measurement": "% bites tested", "setting": "[1]; [3]", "value": 32, "unit": "%"},
      {"measurement": "% efficacy", "setting": "[1]; [3]", "value": 48, "unit": "%"}
    ]},
    {"molecule": "methylated cyclohexyl acetic acid [methylated CHA]", "values": [
      {"measurement": "% efficacy", "setting": "[1]; [7]", "value": 77, "unit": "%"}
    ]}
  ]
}
